In US11439657B2, “Cancer stem cell growth inhibitor using miRNA” (CancerStem Tech Inc., priority 2017, dated 2022):
“Also recorded” adds a separate entry of the source.

Legend:
[1] = system: human gastric cancer cells (AGS line); test: Antitumor effect on human gastric cancer cells, cell count after transfection; assay type: cell-based; details: 10 pmol/well, 48 hours, FIG. 10
Description: (§1) A cell suspension prepared by suspending human pancreatic cancer cells (Bxpc3 line) in D-MEM medium (containing 10% by volume FBS) was seeded in each well of a 24-well plate at 3×10^3 cells/well, followed by culture at 37° C. overnight. Thereafter, according to the lipofectamin 2000 protocol, each miRNA was transfected at 10 pmol/well, and 48 hours later, the cells were counted. In addition, tests were also conducted under the same condition on a case where the miRNA was not introduced (untreated group), a case where hsa-miR-34a (SEQ ID NO: 8) was used (positive control) in place of the miRNA, and a case where a control miRNA (SEQ ID NO: 9) was used (control miRNA, negative control) in place of the selected miRNA.
As to hsa-miR-136-5p, hsa-miR-3065-3p and hsa-miR-181a-5p, evaluation was performed of the antitumor effect on human gastric cancer cells. The specific test method is the same as that for Test Example 4 except that human gastric cancer cells (AGS line) were used as cancer cells.

[2] = system: human esophageal cancer cells (TE11 line); test: Antitumor effect on human esophageal cancer cells, cell count after transfection; assay type: cell-based; details: 10 pmol/well, FIG. 12
Description: as §1
As to hsa-miR-136-5p, hsa-miR-3065-3p, hsa-miR-4727-5p, hsa-miR-378g and hsa-miR-181a-5p, evaluation was performed of the antitumor effect on human esophageal cancer cells. The specific test method is the same as that for Test Example 4 except that human esophageal cancer cells (TE11 line) were used as cancer cells, and that the cells were counted 72 hours after transfection.

[3] = system: human large bowel cancer cells (DLD1 line); test: Antitumor effect on human large bowel cancer cells, cell count after transfection; assay type: cell-based; details: 10 pmol/well, FIG. 11
Description: as §1
As to hsa-miR-136-5p, hsa-miR-3065-3p, hsa-miR-4727-5p, hsa-miR-378g, hsa-miR-181a-5p, hsa-miR-362-5p and hsa-miR-608, evaluation was performed of the antitumor effect on human large bowel cancer cells. The specific test method is the same as that for Test Example 4 except that human large bowel cancer cells (DLD1 line) were used as cancer cells, and that the cells were counted 72 hours after transfection.

[4] = system: cancer stem cell population (ZsGreen+) established from pancreatic cancer cell line Panc-1; test: Screening of miRNAs: cell count (cell viability) of the cancer stem cell population after transfection; assay type: cell-based, human; details: miRNA 10 pmol/well, lipofectamin 2000, cells counted 48 and 72 hours later, FIG. 4
Source text: A cancer stem cell line was established by transducing a pancreatic cancer cell line (Panc-1) with an ODC (Ornithine Decarboxylase)-Degron system capable of visualizing low metabolism that is a property of cancer stem cells using a retrovirus vector (FIG. 1a). The base sequence coding the used ODC-Degron is as set forth in SEQ ID NO: 10. Usually, cancer stem cells are so 26s proteasome hypometabolic that they cannot degrade the introduced fluorescently labeled Ornithine Decarboxylase Degron, and thus the fluorescent protein sufficiently accumulates to provide visualization.
However, even when the ODC-degron system was introduced into the pancreatic cancer cell line Panc-1, only about 0.06% cells emitting fluorescence (green) were obtained in total. With such a small number of cancer stem cells, a series of experiments including drug screening cannot be performed. Accordingly, further enrichment of cancer stem cells provided a cancer stem cell population in which cells having observed fluorescent coloring (i.e., cancer stem cells) accounted for about 81.18% in total (FIG. 1b). The obtained cancer stem cell population was designated as ZsGreen+.
A cell suspension prepared by suspending the cancer stem cell population (ZsGreen+) in a medium (DMEM medium containing 10% by volume FBS) was seeded in each well of a 24-well plate at a density of 5000 to 10000 cells/well, followed by culture at 37° C. overnight. Thereafter, according to the lipofectamin 2000 protocol, each miRNA was transfected at 10 pmol/well, and 48 hours and 72 hours later, the cells were counted. In addition, tests were also conducted under the same condition on a case where the miRNA was not introduced (untreated group, control), a case where has-miR-34a (SEQ ID NO: 8) was used (positive control) in place of the selected miRNA, and a case where a control miRNA (SEQ ID NO: 9) was used (NC1, negative control) in place of the selected miRNA. In addition, for comparison, the non-cancer stem cell population (ZsGreen−) was used in place of the cancer stem cell population (ZsGreen+) to conduct tests under the same condition.
The ratio of the number of cells under each condition to the number of control cells into which the miRNA was not introduced (cell viability, %) was determined.

[5] = system: human pancreatic cancer cells (PSN-1 line); test: Antitumor effect on human pancreatic cancer cells (2), cell count after transfection; assay type: cell-based; details: 10 pmol/well, 48 hours, FIG. 9
Description: as §1
As to hsa-miR-136-5p, hsa-miR-3065-3p and hsa-miR-181a-5p, evaluation was performed of the antitumor effect on human pancreatic cancer cells. The specific test method is the same as that for Test Example 4 except that a PSN-1 line was used as human pancreatic cancer cells.

[6] = system: solid tumor from the cancer stem cell population (ZsGreen+); test: Mouse subcutaneous solid tumor model test; assay type: in vivo, BALB/cA nude mice; details: carbonate apatite nanoparticles containing the miRNA, 40 μg/dose, tail vein i.v., days 0-19; tumor excised on the 24th day
Description: In 100 ml of distilled water, 0.37 g of NaHCO3, 90 μl of NaH2PO4.2H2O (1M) and 180 μl of CaCl2 (1 M) were added in this order and dissolved, and the pH was adjusted to 7.5 with 1N HCl. This was filtered through 0.2 μm diameter filter. Per 1 ml of the resultant buffer, 2 μg of miRNA and 4 μl of CaCl2 (1 M) were mixed and incubated in a water bath at 37° C. for 30 minutes. Then, spin down was performed at 15000 rpm×5 minutes. The resultant pellet was dispersed in physiological saline (containing 0.5 wt % albumin). Accordingly, a dispersion of composite particles containing the miRNA in carbonate apatite particles was obtained. The resultant dispersion was subjected to ultrasonic vibration treatment for 10 minutes just prior to testing. Note that the ultrasonic vibration treatment was performed for 10 minutes using a water bath with an ultrasonic vibration function, in which the dispersion contained in a plastic container was floated on water set to 20° C., under conditions of high frequency output of 55 W and oscillation frequency of 38 kHz. The preparation obtained in this way was immediately used for the tests described below.
Note that it is confirmed in the measurement using a scanning probe microscope that the dispersion of ultrasonic vibration treatment includes composite particles composed of carbonate apatite nanoparticles containing the miRNA having an average particle diameter of 50 nm or less. It is also confirmed that the resultant composite particles contain about 20 μg of the miRNA per 1 mg of carbonate apatite.
The cancer stem cell population (ZsGreen+) obtained in Test Example 1 was subcutaneously injected at 5×10^5 cells to the left and right backs of 6 to 8 weeks age BALB/cA nude mice (manufactured by CLEA Japan, Inc.) to produce solid tumor model mice. When the tumor reached about 20 mm^3 in size, the mice were randomly divided into an hsa-miR-136-5p administration group (hsa-miR-136-5p), an untreated group, and a negative control group (control miRNA). In the hsa-miR-136-5p administration group, the day at which the tumor reached about 20 mm^3 in size was 0th day. On the 0th, 3rd, 5th, 7th, 10th, 12th, 14th, 17th and 19th days, carbonate apatite nanoparticles containing the hsa-miR-136-5p were intravenously injected into the tail vein at 40 μg/dose in terms of the amount of hsa-miR-136-5p. In the negative control group, carbonate apatite nanoparticles containing a control miRNA (SEQ ID NO: 9) were intravenously injected into the tail vein at the same schedule and dose as those for the miRNA136-5p administration group. In the untreated group, no drug was administered. During the test period, the tumor volume on the back of the mouse (longer diameter×shorter diameter×shorter diameter×1/2) was measured over time, and on the 24th day, the tumor was excised from the mice and observed for size, and its weight was measured.
A mouse subcutaneous solid tumor model test was conducted in the same manner as in Test Example 2 except that hsa-miR-3065-3p was used in place of hsa-miR-136-5p.
A mouse subcutaneous solid tumor model test was conducted in the same manner as in Test Example 2 except that hsa-miR-181-5p was used in place of hsa-miR-136-5p.

[7] = system: human pancreatic cancer cells (Bxpc3 line); test: Antitumor effect on human pancreatic cancer cells (1), cell count after transfection; assay type: cell-based; details: 10 pmol/well, FIG. 8
Description: as §1

[8] = 72 hours, positive control hsa-miR-34a
[9] = cells counted 72 hours after transfection

hsa-miR-181a-5p: human-derived miR-181a-5p; base sequence set forth in SEQ ID NO: 5 as mature miRNA (AACAUUCAACGCUGUCGGUGAGU; listed as RNA, chemistry not given here; listed as Homo sapiens)
proliferation inhibitory effect on gastric cancer cells [1]: strong proliferation inhibitory effect
antitumor effect ([1]; positive control hsa-miR-34a): much better antitumor effect than that of hsa-miR-34a; also recorded: particularly remarkable antitumor effect
antitumor effect [2, 8]: much better antitumor effect than that of hsa-miR-34a; also recorded: particularly remarkable antitumor effect
proliferation inhibitory effect on esophageal cancer cells [2, 9]: strong proliferation inhibitory effect
antitumor effect [3, 8]: much better antitumor effect than that of hsa-miR-34a; also recorded: particularly remarkable antitumor effect
proliferation inhibitory effect on large bowel cancer cells [3, 9]: strong proliferation inhibitory effect
proliferation inhibitory effect on cancer stem cells (cell viability) [4]: effectively suppress proliferation of cancer stem cells; also recorded: prominent proliferation inhibitory effect
proliferation inhibitory effect on pancreatic cancer cells [5]: strong proliferation inhibitory effect
antitumor effect as compared to the untreated group and the negative control group (control miRNA) [6]: remarkably higher antitumor effect
antitumor effect ([7]; 48 hours, positive control hsa-miR-34a): much better antitumor effect than that of hsa-miR-34a
proliferation inhibitory effect on pancreatic cancer cells ([7]; cells counted 48 hours later): strong proliferation inhibitory effect
